Results on 6 molecules are retold here after paper PMC10688820 (Microbiome Research Reports, 2023).

Read-outs that look alike come from different tables or passages of the source.

Test [1] concerns the target T1, BiBga42A (Bifidobacterium longum, UniProt Z9E2X9H8H4, A160E, form not given).
T1 construct: C-terminal hexahistidine tag, pET23b, expressed in E. coli BL21 (DE3) ΔlacZ; GH42; homotrimer, active site completed by W200 and F221 of neighbouring subunit
The experiment in a line: coupled colorimetric Gal release assay (Thio-NADH, […] nm). Type of test: biochemical. The note with it: 100 mM citrate-phosphate pH 6.5, 37 °C, 12.5 mM MgCl2 (coupling mix); read-out: pNP-Gal.

The target of test [2] is T2, BiBga42A (Bifidobacterium longum, UniProt Z9E2X9H8H4, R121A/A160E/A318E, form not given).
T2 construct: C-terminal hexahistidine tag, pET23b, expressed in E. coli BL21 (DE3) ΔlacZ; GH42; homotrimer, active site completed by W200 and F221 of neighbouring subunit
The test is described as above. It is filed as biochemical. The conditions noted are these: 100 mM citrate-phosphate pH 6.5, 37 °C, 12.5 mM MgCl2 (coupling mix).

For test [3], the target named is T3, BiBga42A (Bifidobacterium longum, UniProt Z9E2X9H8H4, A160E/A318E/W326A, form not given).
T3 construct: C-terminal hexahistidine tag, pET23b, expressed in E. coli BL21 (DE3) ΔlacZ; GH42; homotrimer, active site completed by W200 and F221 of neighbouring subunit
Described as above. It is filed as biochemical. The conditions noted are these: 100 mM citrate-phosphate pH 6.5, 37 °C, 12.5 mM MgCl2 (coupling mix).

In test [4] the target is T4, BiBga42A (Bifidobacterium longum, UniProt Z9E2X9H8H4, A160E/A318E, form not given).
T4 construct: C-terminal hexahistidine tag, pET23b, expressed in E. coli BL21 (DE3) ΔlacZ; GH42; homotrimer, active site completed by W200 and F221 of neighbouring subunit
Described as above. Type of test: biochemical. The note with it: 100 mM citrate-phosphate pH 6.5, 37 °C, 12.5 mM MgCl2 (coupling mix).

Test [5] concerns the target T5, BiBga42A (Bifidobacterium longum, UniProt Z9E2X9H8H4, A318E, form not given).
T5 construct: C-terminal hexahistidine tag, pET23b, expressed in E. coli BL21 (DE3) ΔlacZ; GH42; homotrimer, active site completed by W200 and F221 of neighbouring subunit
The description is as above. It is filed as biochemical. The note with it: 100 mM citrate-phosphate pH 6.5, 37 °C, 12.5 mM MgCl2 (coupling mix); read-out: pNP-Gal.

Test [6] has as its target BiBga42A E318S mutant (Bifidobacterium longum subsp. infantis ATCC 15697). The experiment in a line: crystal structure; hanging drop vapor diffusion, 20 °C, 20 mg/mL protein; trimer seen by a crystallographic 3-fold axis (WT-GOL, E318S-LNT) or within the asymmetric unit (E160A/E318A-Gal).
Test [7] concerns the target BiBga42A wild-type (WT) enzyme, glycoside hydrolase family 42 β-galactosidase from Bifidobacterium longum subsp. infantis ATCC 15697 (Bifidobacterium longum subsp. infantis ATCC 15697). The description is as above.
The target of test [8] is T6, BiBga42A (Bifidobacterium longum, UniProt Z9E2X9H8H4, A160E/M262G/A318E, form not given).
T6 construct: C-terminal hexahistidine tag, pET23b, expressed in E. coli BL21 (DE3) ΔlacZ; GH42; homotrimer, active site completed by W200 and F221 of neighbouring subunit
The experiment in a line: coupled colorimetric Gal release assay (Thio-NADH, […] nm). It is filed as biochemical. The note with it: 100 mM citrate-phosphate pH 6.5, 37 °C, 12.5 mM MgCl2 (coupling mix); read-out: LNT.

The target in test [9] is T7, BiBga42A (Bifidobacterium longum, UniProt Z9E2X9H8H4, A160E/F221A/A318E, form not given).
T7 construct: C-terminal hexahistidine tag, pET23b, expressed in E. coli BL21 (DE3) ΔlacZ; GH42; homotrimer, active site completed by W200 and F221 of neighbouring subunit
The description is as above. It is filed as biochemical. The note with it: 100 mM citrate-phosphate pH 6.5, 37 °C, 12.5 mM MgCl2 (coupling mix); read-out: LNT.

The target in test [10] is T8, BiBga42A (Bifidobacterium longum, UniProt Z9E2X9H8H4, A160E/A318E/R327A, form not given).
T8 construct: C-terminal hexahistidine tag, pET23b, expressed in E. coli BL21 (DE3) ΔlacZ; GH42; homotrimer, active site completed by W200 and F221 of neighbouring subunit
The description is as above. It is filed as biochemical. The note with it: 100 mM citrate-phosphate pH 6.5, 37 °C, 12.5 mM MgCl2 (coupling mix); read-out: LNT.

The target of test [11] is T9, BiBga42A (Bifidobacterium longum, UniProt Z9E2X9H8H4, A160E/Y287F/A318E, form not given).
T9 construct: C-terminal hexahistidine tag, pET23b, expressed in E. coli BL21 (DE3) ΔlacZ; GH42; homotrimer, active site completed by W200 and F221 of neighbouring subunit
Described as above. The note with it: 100 mM citrate-phosphate pH 6.5, 37 °C, 12.5 mM MgCl2 (coupling mix); read-out: LNT. It is filed as biochemical.

For test [12], the target named is T10, BiBga42A (Bifidobacterium longum, UniProt Z9E2X9H8H4, A160E/A318S, form not given).
T10 construct: C-terminal hexahistidine tag, pET23b, expressed in E. coli BL21 (DE3) ΔlacZ; GH42; homotrimer, active site completed by W200 and F221 of neighbouring subunit
The experiment in a line: X-ray co-crystal structure, […] Å. It is filed as binding. The conditions noted are these: co-crystallised with 100 mM LNT, pH 5.8; subsites -1 to +3.

For test [13], the target named is BiBga42A E160A/E318A double mutant (Bifidobacterium longum subsp. infantis ATCC 15697). The experiment in a line: crystal structure; hanging drop vapor diffusion, 20 °C, 20 mg/mL protein; trimer seen by a crystallographic 3-fold axis (WT-GOL, E318S-LNT) or within the asymmetric unit (E160A/E318A-Gal).

As to `O=[N+]([O-])c1ccc(O[C@@H]2O[C@H](CO)[C@H](O)[C@H](O)[C@H]2O)cc1` [pNP-Gal], the Km in test [1] was found to be 1.4 mM; in [2] (read-out: pNP-Gal), 1.4 mM; in [3] (read-out: pNP-Gal), 12 mM; in [4] (read-out: pNP-Gal) it was 0.57 mM; in test [5] it was 0.94 mM.
In general, stoichiometry N refers to a count of units in the complex or per binding partner. Consider BiBga42A E318S mutant (enzyme), for which the stoichiometry N in test [6] came out at 3.
Regarding `CC(=O)N[C@H]1C(O)O[C@H](CO)[C@@H](O)[C@@H]1O[C@@H]1O[C@H](CO)[C@H](O)[C@H](O)[C@H]1O` (some centres unmarked) [LNB], in [4] (read-out: LNB), the Km worked out at 25 mM.
Take “BiBga42A wild-type (WT) enzyme, glycoside hydrolase family 42 β-galactosidase from Bifidobacterium longum subsp. infantis ATCC 15697”: the stoichiometry N in test [7] came out at 3.
On to `CC(=O)N[C@H]1[C@H](O[C@H]2[C@@H](O)[C@@H](CO)O[C@@H](O[C@H]3[C@H](O)[C@@H](O)C(O)O[C@@H]3CO)[C@@H]2O)O[C@H](CO)[C@@H](O)[C@@H]1O[C@@H]1O[C@H](CO)[C@H](O)[C@H](O)[C@H]1O` (some centres unmarked) [LNT], for which the Km in [8] was found to be 3 mM; in test [2] (read-out: LNT), 16 mM; in test [3] (read-out: LNT) it was 7.7 mM; in [9] it was 8.4 mM; in test [4] (read-out: LNT) it was 2.7 mM; in test [10] it was 11 mM. Also, the Km in [11] worked out at 2.6 mM. The “X-ray co-crystal structure, 2.2 Å” value in test [12] is recorded as “An LNT-complexed crystal was indeed obtained for the mutant”.
Take “BiBga42A E160A/E318A double mutant (enzyme)”: the stoichiometry N in [13] amounted to 3.
